Test results published in patent US4349545A, “Novel erythromycin a derivatives” (Roussel Uclaf, priority 1980, dated 1982).
In brackets after ≈: the same amount, converted by molar mass. Read-outs that look alike come from different tables or passages of the source.

Columns and labels:
[1] = test system: Staphylococcus aureus No. 54,146; assay: In vivo activity in mice experimentally infected with Staphylococcus aureus No. 54,146; details: groups of 10 mice
Experimental: The test was effected with the compounds of the invention and erythromycin as a reference on groups of 10 mice weighing about 21 g experimentally infected with Staphylococcus aureus No. 54,146 by intraperitoneal administration of 0.5 ml of a 22 hour culture of the said organism in bouillon with a pH of 7 diluted to 1/6 with physiological water. The test compounds were orally administrated to the mice 1,5 and 24 hours after the infection and the mortality on the 8th day was determined.

[2] = test system: Streptococcus pyrogenes A561; assay: In vivo activity in mice experimentally infected with Streptococcus pyrogenes A561; details: groups of 10 male mice
Experimental: In a second test, groups of 10 male mice weighing about 21 g were experimentally infected by an intraperitoneal injection of 0.5 ml of a 22 hour culture of Streptococcus pyrogenes A561 in Todd Hewitt bouillon with a pH of 7 diluted to 1/1000 with physiological water. The compounds of Examples 1 or 5 were administered orally 1,5 and 24 hours after the infection and the number of mice living on the fifth day was determined.

[3] = test system: Streptococcus pyogenes A 561; assay: serial dilution liquid medium MIC, Streptococcus pyogenes A 561; format: cell-based; details: A561, 24 hours at 37° C., read-out: minimum inhibiting concentration (MIC)
Experimental: (§1) The method was a serial dilution of liquid medium test wherein a series of tubes were prepared containing the same amount of sterile nutritive medium and increasing amounts of the test product was distributed in each tube. The tubes were then seeded with a bacterial strain and incubated for 24 hours in an oven at 37° C. The degree of inhibition was determined by transillumination to determine the minimum inhibiting concentration (MIC) express in μg/ml and the results are reported in the following Tables.

[4] = test system: Staphylococcus aureus UC 1128; assay: serial dilution liquid medium MIC, Staphylococcus aureus UC 1128 pen-resistant; format: cell-based; details: read-out: minimum inhibiting concentration (MIC)
Experimental: as §1

[5] = test system: Staphylococcus aureus exp. n° 54 146; assay: serial dilution liquid medium MIC, Staphylococcus aureus exp. n° 54 146; format: cell-based; details: Staphylococcus aureus exp. 54 146; 24 hours at 37° C.; read-out: minimum inhibiting concentration (MIC)
Experimental: as §1

[6] = test system: Streptococcus faecalis 5432; assay: serial dilution liquid medium MIC, Streptococcus faecalis 5432; format: cell-based; details: Enterococcus faecalis, 24 hours at 37° C., read-out: minimum inhibiting concentration (MIC)
Experimental: as §1

[7] = test system: Staphylococcus aureus ATCC 6538; assay: serial dilution liquid medium MIC, Staphylococcus aureus ATCC 6538 Pen-Sensibles; format: cell-based; details: read-out: minimum inhibiting concentration (MIC)
Experimental: as §1

[8] = test system: Bacillus subtilis ATCC 6 633; assay: serial dilution liquid medium MIC, Bacillus subtilis ATCC 6 633; format: cell-based; details: ATCC6, 24 hours at 37° C., read-out: minimum inhibiting concentration (MIC)
Experimental: as §1

[9] = test system: Streptococcus faecalis 99 F 74; assay: serial dilution liquid medium MIC, Streptococcus faecalis 99 F 74; format: cell-based; details: Enterococcus faecalis, 99F74, 24 hours at 37° C., read-out: minimum inhibiting concentration (MIC)
Experimental: as §1

[10] = dose 0,5mg oral, 1,5 and 24 hours after infection
[11] = dose 0,25mg oral, 1,5 and 24 hours after infection
[12] = UC1128, Staphylococcus aureus UC 1128 pen-resistant, 24 hours at 37° C.
[13] = Staphylococcus aureus, ATCC6538, 24 h
[14] = dose 0,75mg oral, 1,5 and 24 hours after infection
[15] = ATCC6538, Staphylococcus aureus ATCC 6538 Pen-Sensibles, 24 hours at 37° C.
[16] = dose 1mg oral, 1,5 and 24 hours after infection

Row | MIC [7, 15] [µg/mL] | SMILES | No. of mice living on the 8th day [1, 10] [mice] | No. of mice living on the 8th day [1, 11] [mice] | No. of mice alive on 5th day ([2]; dose 0.5 mg oral, 1,5 and 24 hours after infection) [mice] | No. of mice alive on 5th day ([2]; dose 1 mg oral, 1,5 and 24 hours after infection) [mice] | MIC [3] [µg/mL] | MIC [4, 12] [µg/mL] | MIC [5] [µg/mL] | MIC [6] [µg/mL] | MIC [7, 13] [µg/mL] | MIC [8] [µg/mL] | MIC [9] [µg/mL] | No. of mice living on the 8th day [1, 14] [mice] | No. of mice alive on 5th day ([2]; dose 0.1 mg oral, 1,5 and 24 hours after infection) [mice] | MIC ([4]; Staphylococcus aureus, UC1128, 24 h) [µg/mL] | No. of mice living on the 8th day [1, 16] [mice]
1 | – | CC[C@H]1OC(=O)[C@H](C)[C@@H](O[C@H]2C[C@@](C)(OC)[C@@H](O)[C@H](C)O2)[C@H](C)[C@@H](O[C@@H]2O[C@H](C)C[C@H](N(C)C)[C@H]2O)[C@](C)(O)C[C@@H](C)C(=NOCOCCOC)[C@H](C)[C@@H](O)[C@]1(C)O [Example 1, 9-[0-(2-methoxyethoxy)-methyloxime] of erythromycin] | 10 | 7 | 2 | 10 | 0.05 (≈ 0.0597 µM) | 2 (≈ 2.39 µM) | 1 (≈ 1.19 µM) | 0.2 (≈ 0.239 µM) | 0.5 (≈ 0.597 µM) | 0.2 (≈ 0.239 µM) | 0.2 (≈ 0.239 µM) | – | – | – | –
2 | – | CC[C@H]1OC(=O)[C@H](C)[C@@H](O[C@H]2C[C@@](C)(OC)[C@@H](O)[C@H](C)O2)[C@H](C)[C@@H](O[C@@H]2O[C@H](C)C[C@H](N(C)C)[C@H]2O)[C@](C)(O)C[C@@H](C)C(=NOCCOc2ccc(Cl)cc2)[C@H](C)[C@@H](O)[C@]1(C)O [Example 2, 9-[0-(2-{4-chlorophenoxy}-ethyl)-oxime] of erythromycin] | – | – | – | – | ≤ 0.02 | – | 0.5 (≈ 0.553 µM) | 0.1 (≈ 0.111 µM) | 0.1 (≈ 0.111 µM) | 0.2 (≈ 0.221 µM) | 0.1 (≈ 0.111 µM) | – | – | 1 (≈ 1.11 µM) | –
3 | 2 (≈ 2.35 µM) | CCOCCOCON=C1[C@H](C)C[C@@](C)(O)[C@H](O[C@@H]2O[C@H](C)C[C@H](N(C)C)[C@H]2O)[C@@H](C)[C@H](O[C@H]2C[C@@](C)(OC)[C@@H](O)[C@H](C)O2)[C@@H](C)C(=O)O[C@H](CC)[C@@](C)(O)[C@H](O)[C@H]1C [Example 4, 9-[0-(2-ethoxyethoxymethyl)-oxime] of erythromycin] | 4 | 0 | – | – | 0.05 (≈ 0.0587 µM) | 3 (≈ 3.52 µM) | 2 (≈ 2.35 µM) | 0.5 (≈ 0.587 µM) | – | 0.5 (≈ 0.587 µM) | 0.2 (≈ 0.235 µM) | 9 | – | – | 10
4 | – | CC[C@H]1OC(=O)[C@H](C)[C@@H](O[C@H]2C[C@@](C)(OC)[C@@H](O)[C@H](C)O2)[C@H](C)[C@@H](O[C@@H]2O[C@H](C)C[C@H](N(C)C)[C@H]2O)[C@](C)(O)C[C@@H](C)C(=NOCOCc2ccccc2)[C@H](C)[C@@H](O)[C@]1(C)O [Example 7, 9-[0-benzyloxymethoxy-oxime] of erythromycin] | – | – | – | – | 0.05 (≈ 0.0575 µM) | 1 (≈ 1.15 µM) | 0.5 (≈ 0.575 µM) | 0.1 (≈ 0.115 µM) | 0.2 (≈ 0.23 µM) | 0.1 (≈ 0.115 µM) | 0.1 (≈ 0.115 µM) | – | – | – | –
5 | 0.5 (≈ 0.609 µM) | CCOCCON=C1[C@H](C)C[C@@](C)(O)[C@H](O[C@@H]2O[C@H](C)C[C@H](N(C)C)[C@H]2O)[C@@H](C)[C@H](O[C@H]2C[C@@](C)(OC)[C@@H](O)[C@H](C)O2)[C@@H](C)C(=O)O[C@H](CC)[C@@](C)(O)[C@H](O)[C@H]1C [Example 3, 9-[0-(2-ethoxyethyl)-oxime] of erythromycin] | 7 | – | – | – | 0.1 (≈ 0.122 µM) | 1 (≈ 1.22 µM) | 0.5 (≈ 0.609 µM) | 0.2 (≈ 0.244 µM) | – | 0.2 (≈ 0.244 µM) | 0.2 (≈ 0.244 µM) | 9 | – | – | 9

Row | SMILES | MIC [7, 15] [µg/mL] | No. of mice living on the 8th day [1, 10] [mice] | No. of mice living on the 8th day [1, 11] [mice] | No. of mice alive on 5th day ([2]; dose 0.5 mg oral, 1,5 and 24 hours after infection) [mice] | No. of mice alive on 5th day ([2]; dose 1 mg oral, 1,5 and 24 hours after infection) [mice] | MIC [3] [µg/mL] | MIC [4, 12] [µg/mL] | MIC [5] [µg/mL] | MIC [6] [µg/mL] | MIC [7, 13] [µg/mL] | MIC [8] [µg/mL] | MIC [9] [µg/mL] | No. of mice living on the 8th day [1, 14] [mice] | No. of mice alive on 5th day ([2]; dose 0.1 mg oral, 1,5 and 24 hours after infection) [mice] | MIC ([4]; Staphylococcus aureus, UC1128, 24 h) [µg/mL] | No. of mice living on the 8th day [1, 16] [mice]
6 | CC[C@H]1OC(=O)[C@H](C)[C@@H](O[C@H]2C[C@@](C)(OC)[C@@H](O)[C@H](C)O2)[C@H](C)[C@@H](O[C@@H]2O[C@H](C)C[C@H](N(C)C)[C@H]2O)[C@](C)(O)C[C@@H](C)C(=NOCCN(C)C)[C@H](C)[C@@H](O)[C@]1(C)O [Example 5, 9-[0-(2-dimethylaminoethyl)-oxime] of erythromycin] | 1 (≈ 1.22 µM) | 8 | 2 | – | – | ≤ 0.02 | 1 (≈ 1.22 µM) | 1 (≈ 1.22 µM) | 0.05 (≈ 0.061 µM) | – | 0.5 (≈ 0.61 µM) | 0.05 (≈ 0.061 µM) | 10 | 10 | – | –
